Toxic doses and inconclusive results are not listed. The calls were made as follows: active = survival T/C of 150% or more; inactive = T/C below 125% in these data.
System: BDF1 mice, L1210 6-MP/6-TG resistant leukemia ip, survival T/C
Assay: NCI In Vivo Anticancer Drug Screen. Data for tumor model L1210 Leukemia resistant to 6-MP and 6-Thioguanine; NSC 755, NSC 752 (intraperitoneal) in B6D2F1 (BDF1) mice
Details: endpoint: mean survival time, higher = longer survival
Protocol: The antitumor activity of compounds was measured in mice bearing transplantable tumors. Survival or tumor size were measured and the results are expressed as the measurement made in the treated group (T) divided by the measurement made in the vehicle treated control group (C). The tumor model used in this assay is L1210 Leukemia resistant to 6-MP and 6-Thioguanine; NSC 755, NSC 752 (intraperitoneal) in B6D2F1 (BDF1) mice

[1] = dose: 25.0 mg/kg/injection, schedule: Q01DX Z (ip), vehicle: carboxymethylcellulose (CMC)
[2] = dose: 50.0 mg/kg/injection, schedule: Q01DX Z (ip), vehicle: carboxymethylcellulose (CMC)
[3] = dose: 100.0 mg/kg/injection, schedule: Q01DX Z (ip), vehicle: carboxymethylcellulose (CMC)
[4] = dose: 200.0 mg/kg/injection, schedule: Q01DX Z (ip), vehicle: carboxymethylcellulose (CMC)

Measured: T/C

O=C(O)CCCc1ccc(N(CCCl)CCCl)cc1
inactive: dose: 5.0 mg/kg/injection, schedule: Q01DX Z (ip), vehicle: carboxymethylcellulose (CMC) 117 % of control | dose: 10.0 mg/kg/injection, schedule: Q01DX Z (ip), vehicle: carboxymethylcellulose (CMC) 114 % of control | dose: 20.0 mg/kg/injection, schedule: Q01DX Z (ip), vehicle: carboxymethylcellulose (CMC) 115 % of control | dose: 30.0 mg/kg/injection, schedule: Q01DX Z (ip), vehicle: carboxymethylcellulose (CMC) 89 % of control

CC(=O)OCC1OC(n2cnc3c(=S)nc[nH]c32)C(OC(C)=O)C1OC(C)=O (stereo unspecified)
inactive: [1] 104 % of control | [2] 111 % of control | [3] 108 % of control | [4] 98 % of control

Ic1ncnc2nc[nH]c12
inactive: dose: 62.5 mg/kg/injection, schedule: Q01DX Z (ip), vehicle: carboxymethylcellulose (CMC) 88 % of control | dose: 125.0 mg/kg/injection, schedule: Q01DX Z (ip), vehicle: carboxymethylcellulose (CMC) 89 % of control | dose: 250.0 mg/kg/injection, schedule: Q01DX Z (ip), vehicle: carboxymethylcellulose (CMC) 89 % of control

N=C(N)c1ccc(Nc2ccc(C(=N)N)cc2)cc1
inactive: dose: 2.0 mg/kg/injection, schedule: Q01DX Z (ip), vehicle: water 112 % of control | dose: 4.0 mg/kg/injection, schedule: Q01DX Z (ip), vehicle: water 102 % of control | dose: 6.0 mg/kg/injection, schedule: Q01DX Z (ip), vehicle: water 104 % of control | dose: 8.0 mg/kg/injection, schedule: Q01DX Z (ip), vehicle: water 106 % of control | dose: 9.37 mg/kg/injection, schedule: Q01DX Z (ip), vehicle: water 104 % of control | dose: 18.75 mg/kg/injection, schedule: Q01DX Z (ip), vehicle: water 100 % of control

Cn1c(O)c(N=NC(N)=S)c2ccccc21
inactive: [1] 100 % of control | [2] 105 % of control | [3] 104 % of control | [4] 88 % of control

NS(=O)(=O)c1ncnc2nc[nH]c12
inactive: dose: 6.0 mg/kg/injection, schedule: Q01DX Z (ip), vehicle: carboxymethylcellulose (CMC) 122 % of control | dose: 25.0 mg/kg/injection, schedule: Q01DX Z (ip), vehicle: saline 112 % of control | dose: 50.0 mg/kg/injection, schedule: Q01DX Z (ip), vehicle: saline 96 % of control

CC(=O)O[C@]1(C(C)=O)CC[C@H]2[C@@H]3C[C@H](C)C4=CC(=O)C=C[C@]4(C)[C@@]3(F)[C@@H](O)C[C@@]21C
inactive: dose: 37.5 mg/kg/injection, schedule: Q01DX Z (sc), vehicle: steriod suspending solution 101 % of control | dose: 100.0 mg/kg/injection, schedule: Q01DX Z (sc), vehicle: steriod suspending solution 89 % of control

Source: PubChem BioAssay AID308 (DTP/NCI, 2004)
